The source of these data is patent publication US20100130512A1, “FUSED-RING H[…]” (RENSSELAER POLYTECHNIC INSTITUTE, priority 2007, published 2010).

Test [1] has as its target T1, human opioid receptor (δ) (Homo sapiens, UniProt P41143).
T1 construct: expressed in transfected cells
Nature of the test: Opioid receptor binding, [3H]naltrindole (δ).

Test [2] addresses T2, human opioid receptor (κ) (Homo sapiens, UniProt P41145).
T2 construct: expressed in transfected cells
Nature of the test: Opioid receptor binding, [3H]U69,593 (κ).

For test [3], the target named is T3, human opioid receptor (μ) (Homo sapiens, UniProt P35372).
T3 construct: expressed in transfected cells
T3 sequence (P35372 whole entry): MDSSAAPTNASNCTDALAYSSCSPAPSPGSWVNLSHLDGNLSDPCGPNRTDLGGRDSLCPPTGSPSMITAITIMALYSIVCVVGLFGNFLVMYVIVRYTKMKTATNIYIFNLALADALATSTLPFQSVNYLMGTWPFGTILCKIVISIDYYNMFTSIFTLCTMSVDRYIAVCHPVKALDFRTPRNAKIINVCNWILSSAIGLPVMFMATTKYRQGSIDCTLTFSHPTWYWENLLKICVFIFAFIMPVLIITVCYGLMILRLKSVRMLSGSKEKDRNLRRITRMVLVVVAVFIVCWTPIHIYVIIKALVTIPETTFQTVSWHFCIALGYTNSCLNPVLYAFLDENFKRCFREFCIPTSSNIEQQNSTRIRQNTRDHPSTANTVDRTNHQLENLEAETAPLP
Nature of the test: Opioid receptor binding, [3H]DAMGO (μ).

For the next test, the target named is T4, human μ opioid receptor (Homo sapiens, UniProt P35372).
T4 construct: expressed in transfected cells
T4 sequence (P35372 whole entry): as above
Description: [35S]GTPγS binding assay, μ. It is filed as biochemical. The note with it: agonist/antagonist character; antagonism vs 200 nM DAMGO. (Binding of GTPγS marks nucleotide exchange on a G protein.)

For another test, the target named is T5, human κ opioid receptor (Homo sapiens, UniProt P41145).
T5 construct: expressed in transfected cells
T5 sequence (P41145 whole entry): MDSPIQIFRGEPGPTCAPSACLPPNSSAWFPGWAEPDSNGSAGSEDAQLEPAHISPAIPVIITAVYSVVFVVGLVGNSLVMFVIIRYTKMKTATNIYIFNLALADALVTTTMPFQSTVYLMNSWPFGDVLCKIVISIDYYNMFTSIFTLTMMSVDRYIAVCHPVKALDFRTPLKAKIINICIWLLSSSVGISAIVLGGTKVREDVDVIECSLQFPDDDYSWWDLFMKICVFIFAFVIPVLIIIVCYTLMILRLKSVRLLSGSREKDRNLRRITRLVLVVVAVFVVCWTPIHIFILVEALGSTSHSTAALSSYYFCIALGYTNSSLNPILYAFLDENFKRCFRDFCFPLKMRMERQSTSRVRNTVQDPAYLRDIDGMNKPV
Description: [35S]GTPγS binding assay, κ. The settings on record: agonist/antagonist character; antagonism vs 100 nM U50,488. It is filed as biochemical.

The test system of another test is mice. The settings on record: cited from earlier work; for duration of action: 1 mg/kg ip in mice.
The next test concerns guinea pig μ receptors. The settings on record: cyclazocine series; μ printed as ∥; cited from earlier work.
The next test deals with κ opioid receptors. The note with it: cyclazocine series; cited from earlier work.
The mark [4] stands for this setting: CHO cell membranes, 1 nM [3H]U69,593, mean±SEM, read-out: Ki [3H]U69,593 (K).
Where [5] appears, read: read-out: Ki [3H]Naltrindole (δ), CHO cell membranes, 0.2 nM [3H]naltrindole, mean±SEM.
[6] abbreviates: read-out: Ki [3H]DAMGO (μ), CHO cell membranes, […] [3H]DAMGO, mean±SEM.

Structures are written as SMILES. Where two headings read alike, the source gives them in different places.

T1 sequence (P41143 whole entry): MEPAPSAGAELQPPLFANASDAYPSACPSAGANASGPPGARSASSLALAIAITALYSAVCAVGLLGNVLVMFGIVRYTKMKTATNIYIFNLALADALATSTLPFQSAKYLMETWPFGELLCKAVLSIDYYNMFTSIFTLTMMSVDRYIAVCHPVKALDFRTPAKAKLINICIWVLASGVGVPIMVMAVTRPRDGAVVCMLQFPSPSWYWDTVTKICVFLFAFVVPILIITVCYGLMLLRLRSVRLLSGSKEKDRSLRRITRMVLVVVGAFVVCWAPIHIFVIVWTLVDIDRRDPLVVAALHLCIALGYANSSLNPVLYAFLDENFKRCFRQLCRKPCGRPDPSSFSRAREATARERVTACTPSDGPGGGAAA
T2 sequence (P41145 whole entry): as the sequence (P41145 whole entry) above

Broadly, the Ki is a dissociation constant, usually derived from enzyme kinetics or from competition with a known ligand. For the compound `CC1C2Cc3cc4ncnc(NCCc5ccc(-c6ccccc6)cc5)c4cc3C1(C)CCN2CC1CC1` (centres unmarked) [Example 15], the Ki was 410 ± 61 nM in test [1], 140 ± 4.4 nM in test [2] (setting [4]) and 28 ± 1.9 nM in test [3].
In the case of `CC1C2Cc3cc4nc[nH]c4cc3C1(C)CCN2CC1CC1` (centres unmarked) [Example 34], the Ki in test [1] came to 5.1 ± 0.65 nM; in test [2] (setting [4]), 0.063 ± 0.0016 nM; in test [3], 0.31 ± 0.05 nM. For the same compound, the “GTPγS data, MOR” value at human μ opioid receptor is “MOR weak agonist/antagonist, KOR”.
`CC1C2Cc3cc4ncnc(NCc5ccccc5)c4cc3C1(C)CCN2CC1CC1` (centres unmarked) [Example 13]: the figures for the Ki in test [1], in test [2] (setting [4]) and in test [3] were 1000 ± 37 nM, 48 ± 2.3 nM and 88 ± 7.2 nM, respectively.
Regarding `CC1C2Cc3ccc(C(N)=O)c(N)c3C1(C)CCN2CC1CC1` (mixture of isomers) [Example 6, Cis-(±)-3-(cyclopropylmethyl)-1,2,3,4,5,6-hexahydro-6,11-dimethyl-7-amino-2,6-methano-3-benzazocine-8-carboxamide], the Ki in test [1] turned out to be 35 ± 0.036 nM; in test [2], 0.7 ± 0.036 nM; in test [3], 0.55 ± 0.029 nM.
For the compound `C[C@H]1C2Cc3cc(N)c(C(N)=O)cc3[C@@]1(C)CCN2CC1CC1` (racemic) [Example 7, Cis-(±)-3-(cyclopropylmethyl)-1,2,3,4,5,6-hexahydro-6,11-dimethyl-9-amino-2,6-methano-3-benzazocine-8-carboxamide], the Ki was determined as 2000 ± 12 nM in test [1], 32 ± 1.7 nM in test [2] and 88 ± 5.2 nM in test [3].
With `CC1C2Cc3cc4[nH]c(=O)[nH]c4cc3C1(C)CCN2CC1CC1` (centres unmarked) [Example 36], the Ki came to 730 ± 8.3 nM in test [1], 12 ± 1.3 nM in test [2] (setting [4]) and 60 ± 7.9 nM in test [3].
Regarding `CC1C2Cc3ccc4c(N)ncnc4c3C1(C)CCN2CC1CC1` (centres unmarked) [Example 10], the Ki in test [1] was determined as 120 ± 8.5 nM; in test [2] (setting [4]), 1 ± 0.071 nM; in test [3] it was 0.55 ± 0.018 nM. In addition, on human μ opioid receptor, the “GTPγS data, MOR” value is “MOR and KOR antagonist”. For the same compound, the “GTPγS data, KOR” value on human κ opioid receptor is “MOR and KOR antagonist”.
In the case of `C[C@H]1C2Cc3ccc4c(=O)[nH]cnc4c3[C@@]1(C)CCN2CC1CC1` [Example 8], the Ki in test [1] (setting [5]) stood at 2000 ± 49 nM; in test [2] (setting [4]) it was 160 ± 7.1 nM; in test [3] (setting [6]), 270 ± 33 nM.
`CC1C2Cc3ccc4c(NCc5ccccc5)ncnc4c3C1(C)CCN2CC1CC1` (centres unmarked) [Example 12]: the Ki in test [1] stood at 1500 ± 68 nM; in test [2] (setting [4]), 240 ± 1.8 nM; in test [3], 44 ± 0.76 nM.
On to `Cc1nc2cc3c(cc2[nH]1)CC1C(C)C3(C)CCN1CC1CC1` (centres unmarked) [Example 35], for which the results for the Ki in test [1], in test [2] (setting [4]) and in test [3] were 18 ± 0.9 nM, 0.05 ± 0.002 nM and 0.77 ± 0.051 nM, respectively. The “GTPγS data, MOR” value at human μ opioid receptor is reported as “MOR agonist/weak antagonist; KOR”. Also, the “GTPγS data, KOR” value on human κ opioid receptor was “agonist”.
Regarding `C[C@H]1C2Cc3ccc4c(N)onc4c3[C@@]1(C)CCN2CC1CC1` [Example 43], the results for the Ki in test [1], in test [2] (setting [4]) and in test [3] were 99 ± 10 nM, 0.65 ± 0.005 nM and 0.75 ± 0.038 nM, respectively.
`C[C@H]1[C@H]2Cc3ccc(O)cc3[C@]1(C)CCN2CC1CC1` [cyclazocine]: the duration of action in the test with mice was 2 h.
Consider `CC1C2Cc3ccc4c(NCCc5ccc(-c6ccccc6)cc5)ncnc4c3C1(C)CCN2CC1CC1` (centres unmarked) [Example 14], for which the Ki in test [1] worked out at 52 ± 2.6 nM; in test [2] (setting [4]) it was 8.6 ± 1.5 nM; in test [3] it was 6.9 ± 0.33 nM.
In the case of `C[C@H]1C2Cc3ccc(C(N)=O)cc3[C@@]1(C)CCN2CC1CC1` [Example 8-CAC, 8-carboxamidocyclazocine], the “affinity for μ opioid receptors” value in the test with guinea pig μ receptors is reported as “high affinity”. For the same compound, the “affinity for κ opioid receptors” value in the test on κ opioid receptors is recorded as “high affinity”. For the same compound, the duration of action with mice is listed as 15 h. The antinociception activity entry in the test with mice (studies in vivo) is given as “high antinociception activity”.
For `C[C@H]1C2Cc3cc4nn[nH]c4cc3[C@@]1(C)CCN2CC1CC1` [Example 30], the Ki in test [1] (setting [5]) amounted to 51 ± 7.8 nM; in test [2] (setting [4]), 0.81 ± 0.19 nM; in test [3] (setting [6]), 10 ± 1 nM. On human μ opioid receptor, the “GTPγS data, MOR” value is on record as “antagonist”. On human κ opioid receptor, the “GTPγS data, KOR” value is “agonist”.
`CC1C2Cc3cc4ncnc(N)c4cc3C1(C)CCN2CC1CC1` (centres unmarked) [Example 11]: in test [1] (read-out: inh. of [3H]Naltrindole (δ) binding, at 10 μM), the inhibition at 10 µM stood at 47%. In addition, the Ki in test [2] (setting [4]) was found to be 560 ± 23 nM; in test [3], 890 ± 39 nM.
Take `C[C@H]1C2Cc3cc4nc[nH]c(=O)c4cc3[C@@]1(C)CCN2CC1CC1` [Example 9]: the Ki was determined as 780 ± 32 nM in test [1] (setting [5]), 12 ± 0.65 nM in test [2] (setting [4]) and 170 ± 6.7 nM in test [3] (setting [6]).
With `C[C@H]1C2Cc3ccc4[nH]nnc4c3[C@@]1(C)CCN2CC1CC1` [Example 29], the Ki in test [1] (setting [5]) turned out to be 46 ± 2.6 nM; in test [2] (setting [4]), 0.23 ± 0.009 nM; in test [3] (setting [6]), 1.4 ± 0.043 nM. The “GTPγS data, MOR” value at human μ opioid receptor is “antagonist”. The “GTPγS data, KOR” value at human κ opioid receptor is listed as “agonist”.
